Measured values reported in ChEMBL document CHEMBL3739418, “RGD-peptides modifying dexamethasone: to enhance the anti-inflammatory efficacy and limit the risk of osteoporosis” (Medchemcomm, 2015).
Active and inactive are the calls of the source. The rule behind the calls is not given here. Residues, ends and D or L forms follow the SMILES beside them. *: point of attachment. Succinyl(O21-dexamethasone) = C[C@@H]1C[C@H]2[C@@H]3CCC4=CC(=O)C=C[C@]4(C)[C@@]3(F)[C@@H](O)C[C@]2(C)[C@@]1(O)C(=O)COC(=O)CCC(=O)*

How the values were obtained:
Mus musculus [1] = test: Antiinflammatory activity in ICR mouse assessed as inhibition of xylene-induced edema at 25.5 umol/kg, po administered for 30 mins prior to xylene challenge measured after 2 hrs; format: functional, organism-based
Mus musculus [2] = test: Antiinflammatory activity in xylene-induced ICR mouse edema model assessed as decrease in plasma TNFalpha level at 25.5 umol/kg, po after 60 mins by microplate reader analysis; format: functional, organism-based
Mus musculus [3] = test: Antiinflammatory activity in xylene-induced ICR mouse edema model assessed as decrease in plasma IL8 level at 25.5 umol/kg, po after 60 mins by microplate reader analysis; format: functional, organism-based
A549 = test: Downregulation of DNA replication in human A549 cells at 1 uM after 48 hrs by UV-visible spectrophotometric analysis; format: functional, cell-based
[4] = Drug metabolism in cytosome of human A549 cells assessed as dexamethasone dimer formation at 1 uM by ESI-MS analysis; format: ADME, cell-based, Cytoplasm; conditions: a549, 1 µM
Mus musculus [5] = test: Toxicity in BALB/C mouse assessed as total volumetric bone mineral density at 1.43 umol/kg/day, po administered for 15 days (reference value: 554.3 +/- 17.2 mg/cm3); format: organism-based; conditions: in vivo, 360 h
Mus musculus [6] = test: Toxicity in BALB/C mouse assessed as decrease in dry femur weight at 1.43 umol/kg/day, po administered for 15 days; format: organism-based; conditions: in vivo, 360 h
Mus musculus [7] = test: Antiinflammatory activity in po dosed ICR mouse assessed as inhibition of xylene-induced edema administered for 30 mins prior to xylene challenge measured after 2 hrs; format: functional, organism-based
Mus musculus [8] = test: Toxicity in BALB/C mouse assessed as femur loss at 1.43 umol/kg/day, po administered for 15 days by pQCT analysis; format: organism-based; conditions: in vivo, 360 h
Mus musculus [9] = test: Toxicity in BALB/C mouse assessed as decrease in ash weight at 1.43 umol/kg/day, po administered for 15 days; format: organism-based; conditions: in vivo, 360 h
Mus musculus [10] = test: Toxicity in BALB/C mouse assessed as decrease in femur calcium level at 1.43 umol/kg/day, po administered for 15 days by o-methylphenolphthalein complexing ketone-based assay; format: organism-based; conditions: in vivo, 360 h
Mus musculus [11] = test: Toxicity in BALB/C mouse assessed as decrease in femur phosphor level at 1.43 umol/kg/day, po administered for 15 days by molybdenum blue-based assay; format: organism-based; conditions: in vivo, 360 h

| Compound | inhibition (Mus musculus [1]) | Activity (Mus musculus [2]) | Activity (Mus musculus [3]) | Activity (A549) | Drug metabolism [4] | Activity (Mus musculus [5]) [mg/cm3] | Activity (Mus musculus [6]) | inhibition (Mus musculus [7]) | Activity (Mus musculus [8]) | Activity (Mus musculus [9]) | Activity (Mus musculus [10]) | Activity (Mus musculus [11]) |
| --- | --- | --- | --- | --- | --- | --- | --- | --- | --- | --- | --- | --- |
| C[C@@H]1C[C@H]2[C@@H]3CCC4=CC(=O)C=C[C@]4(C)[C@@]3(F)[C@@H](O)C[C@]2(C)[C@@]1(O)C(=O)COC(=O)CCC(=O)N[C@@H](CCCNC(=N)N)C(=O)NCC(=O)N[C@@H](CC(=O)O)C(=O)N[C@@H](Cc1ccccc1)C(=O)O ({Succinyl(O21-dexamethasone)}-RGDF-OH) | Active | Active | Active | Active | metabolite_detected | 555.1 | Non-toxic |  |  |  |  |  |
| C[C@@H]1C[C@H]2[C@@H]3CCC4=CC(=O)C=C[C@]4(C)[C@@]3(F)[C@@H](O)C[C@]2(C)[C@@]1(O)C(=O)COC(=O)CCC(=O)N[C@@H](CCCNC(=N)N)C(=O)NCC(=O)N[C@@H](CC(=O)O)C(=O)N[C@@H](CO)C(=O)O ({Succinyl(O21-dexamethasone)}-RGDS-OH) |  | Active | Active | Active | metabolite_detected | 558.5 | Non-toxic | Dose-dependent effect |  |  |  |  |
| CC(C)[C@H](NC(=O)[C@H](CC(=O)O)NC(=O)CNC(=O)[C@H](CCCNC(=N)N)NC(=O)CCC(=O)OCC(=O)[C@@]1(O)[C@H](C)C[C@H]2[C@@H]3CCC4=CC(=O)C=C[C@]4(C)[C@@]3(F)[C@@H](O)C[C@@]21C)C(=O)O ({Succinyl(O21-dexamethasone)}-RGDV-OH) | Active | Active | Active | Active | metabolite_detected | 540.3 | Non-toxic |  |  |  |  |  |
| C[C@@H]1C[C@H]2[C@@H]3CCC4=CC(=O)C=C[C@]4(C)[C@@]3(F)[C@@H](O)C[C@]2(C)[C@@]1(O)C(=O)CO [DEXAMETHASONE] | Active | Active | Active | Active |  | 506.3 | Toxic |  | Toxic | Toxic | Toxic | Non-toxic |
